Residues, ends and D or L forms follow the SMILES beside them. *: point of attachment. pNA = O=[N+]([O-])c1ccc(N*)cc1
Key:
aminopeptidase [1] = test: Substrate specificity of the aminopeptidase (paranitroanilide substrates); type: biochemical, Streptomyces thermonitrificans; conditions: substrate 10 mM, 1 unit aminopeptidase, 100 mM Tris buffer pH 8.0, 37° C.; activity to leucine-paranitroanilide as 100%
Description: (§1) Enzymol., 19, 514-521(1970).
The substrate specificity of the aminopeptidase was examined as follows. […] The reaction time was regulated in accordance with the substrate so that paranitroanilide is produced in a fixed rate.

aminopeptidase [2] = test: Effect of orthophenanthroline on the enzyme activity; type: biochemical, Streptomyces thermonitrificans; conditions: 37° C., 1 minute, 0 mM = 100
Description: as §1

[3] = WHO-supplied reference, literature value; cited from earlier work

| Molecule | Activity(%) of the aminopeptidase according to the substrate (aminopeptidase [1]) [%] | further results |
| --- | --- | --- |
| C[C@H](N)C(=O)Nc1ccc([N+](=O)[O-])cc1 [alanine-paranitroanilide] | 0.60 |  |
| NCC(=O)Nc1ccc([N+](=O)[O-])cc1 [glycine-paranitroanilide] | 0.04 |  |
| NCC(=O)N[C@@H](Cc1ccccc1)C(=O)Nc1ccc([N+](=O)[O-])cc1 [glycine-phenylalanine-paranitroanilide] (H-Gly-Phe-pNA) | 0.11 |  |
| NCC(=O)N1CCC[C@H]1C(=O)Nc1ccc([N+](=O)[O-])cc1 [glycine-proline-paranitroanilide] (H-Gly-Pro-pNA) | 0.80 |  |
| CC(C)C[C@H](N)C(=O)Nc1ccc([N+](=O)[O-])cc1 [leucine-paranitroanilide] | 100 |  |
| NCCCC[C@H](N)C(=O)Nc1ccc([N+](=O)[O-])cc1 [lysine-paranitroanilide] | 0.03 |  |
| CSCC[C@H](N)C(=O)Nc1ccc([N+](=O)[O-])cc1 [methionine-paranitroanilide] | 3.60 |  |
| c1cnc2c(c1)ccc1cccnc12 [orthophenanthroline] |  | Activity(%) (aminopeptidase [2]; orthophenanthroline 1 mM): 27%; Activity(%) (aminopeptidase [2]; orthophenanthroline 5 mM): 2% |
| pituitary gland-derivedhuman growth hormone: pituitary gland-derived human growth hormone supplied by World Health Organization |  | potency [3]: 2.5 IU/mg |
